The results in this text go back to patent US10946017B2, “Tank-binding kinase-1 PROTACs and associated methods of use” (Arvinas Operations, Inc., priority 2015, dated 2021).

The target in experiment [1] is T1, TBK1 (Homo sapiens (Human), UniProt Q9UHD2). In words: In vitro TBK1 degradation assay, MDA MB 231 cells (compounds 34-57), immunoblot. The following applies: 1 uM compound, 16 h, read-out: % TBK1 remaining at 1 uM Cmpd. The experiment is classed as cell-based. The protocol:
MDA MB 231 cells were purchased from ATCC and cultured in RPMI-1640 (Gibco), supplemented with 10% FBS (Gibco). PROTAC treatments were carried out in 24-well plates for 16 h. Cells were harvested, and lysed in RIPA buffer (50 mM Tris pH8, 150 mM NaCl, 1% Tx-100, 0.1% SDS, 0.5% Sodium Deoxycholate) supplemented with protease and phosphatase inhibitors. Lysates were clarified at 16,000 g for 10 minutes, and supernatants were separated by SDS-PAGE. Immunoblotting was performed using standard protocols. The antibodies used were TBK1 (Cell Signaling#3504) and GAPDH (Cell Signaling#5174).

The target in experiment [2] is T1, TBK1. Description: In vitro TBK1 degradation assay, Panc02.13 cells (compounds 3-33), immunoblot. Type of experiment: cell-based. The following applies: TBK1 degradation, Panc02.13 cells, 16 h, mean of ≥ 2 determinations; for DC50: read-out: DC50 (concentration at which 50% degradation is observed). The protocol:
In vitro degradation assay protocol for compounds 3-33: Panc02.13 cells were purchased from ATCC and cultured in RPMI-1640 (Gibco), supplemented with 15% FBS (ATCC) and 10 Units/mL human recombinant insulin (Gibco). PROTAC treatments were carried out in 12-well plates for 16 h. TLR3 agonist Poly I:C (Invivogen; tlr1-pic) was added for the final 3 h. Cells were harvested, and lysed in RIPA buffer (50 mM Tris pH8, 150 mM NaCl, 1% Tx-100, 0.1% SDS, 0.5% Sodium Deoxycholate) supplemented with protease and phosphatase inhibitors. Lysates were clarified at 16,000 g for 10 minutes, and supernatants were separated by SDS-PAGE. Immunoblotting was performed using standard protocols. The antibodies used were TBK1 (Cell Signaling#3504), pIRF3 (abcam#ab76493), and GAPDH (Cell Signaling#5174).

T1 sequence (Q9UHD2 whole entry): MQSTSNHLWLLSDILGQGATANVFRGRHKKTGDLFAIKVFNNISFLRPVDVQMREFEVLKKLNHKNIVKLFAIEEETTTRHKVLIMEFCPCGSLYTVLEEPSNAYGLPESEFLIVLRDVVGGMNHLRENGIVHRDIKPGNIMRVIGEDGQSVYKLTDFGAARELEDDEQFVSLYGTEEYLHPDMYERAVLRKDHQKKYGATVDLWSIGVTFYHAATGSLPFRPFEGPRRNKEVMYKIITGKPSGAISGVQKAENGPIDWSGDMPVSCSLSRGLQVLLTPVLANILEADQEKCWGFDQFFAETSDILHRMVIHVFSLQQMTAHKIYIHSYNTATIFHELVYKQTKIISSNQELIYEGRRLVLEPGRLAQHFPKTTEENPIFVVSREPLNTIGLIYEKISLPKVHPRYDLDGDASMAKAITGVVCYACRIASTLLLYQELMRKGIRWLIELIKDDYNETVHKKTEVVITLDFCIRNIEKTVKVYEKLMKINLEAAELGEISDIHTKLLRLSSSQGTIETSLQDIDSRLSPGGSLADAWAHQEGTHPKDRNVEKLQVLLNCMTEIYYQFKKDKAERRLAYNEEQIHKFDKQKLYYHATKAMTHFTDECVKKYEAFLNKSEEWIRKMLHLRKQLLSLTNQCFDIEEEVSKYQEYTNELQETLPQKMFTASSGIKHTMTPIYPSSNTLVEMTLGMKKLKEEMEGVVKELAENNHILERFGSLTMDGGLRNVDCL

As for `Cc1ncsc1-c1ccc(CNC(=O)[C@@H]2C[C@@H](O)CN2C(=O)[C@@H](NC(=O)COCCCOCCCCOCCCOc2cccc(Nc3ncc4c(n3)N(CCCN(C)C(=O)C3CCC3)CC4)c2)C(C)(C)C)cc1` [Compound 53], on TBK1 [1], the remaining activity at 1 µM was at least 81%. In the case of `Cc1ncsc1-c1ccc(CNC(=O)[C@@H]2C[C@@H](O)CN2C(=O)[C@@H](NC(=O)COCCOCCOCCCCOc2ccc(Nc3ncc(Br)c(NCCCN(C)C(=O)C4CCC4)n3)cc2)C(C)(C)C)cc1` [Compound 9], at TBK1 [2], the “Dmax (maximal degradation observed)” value was 86% and the DC50 amounted to 71 nM. For `Cc1ncsc1-c1ccc(CNC(=O)[C@@H]2C[C@@H](O)CN2C(=O)[C@@H](NC(=O)COCCCOCCCOc2ccc(Nc3ncc(Br)c(NCCCN(C)C(=O)C4CCC4)n3)cc2)C(C)(C)C)cc1` [Compound 6], the DC50 on TBK1 [2] was above 1000 nM. Consider `Cc1ncsc1-c1ccc(CNC(=O)[C@@H]2C[C@@H](O)CN2C(=O)[C@H](C(C)C)N2Cc3ccccc3C2=O)c(OCCCOCCCCOCCCOc2ccc(Nc3ncc(Br)c(NCCCN(C)C(=O)C4CCC4)n3)cc2)c1` [Compound 44], for which the remaining activity at 1 µM at TBK1 [1] fell in the range of 41 to 80%.

`Cc1ncsc1-c1ccc(CNC(=O)[C@@H]2C[C@@H](O)CN2C(=O)[C@H](C(C)C)N2Cc3ccccc3C2=O)c(OCCOCCOCCCCOCCOCCOc2ccc(Nc3ncc(Br)c(NCCCN(C)C(=O)C4CCC4)n3)cc2)c1` [Compound 45]: on TBK1 [1], the remaining activity at 1 µM fell in the range of 41 to 80%. Same read-out and setting: the same measure for `Cc1ncsc1-c1ccc(CNC(=O)[C@@H]2C[C@@H](O)CN2C(=O)[C@H](C(C)C)N2Cc3ccccc3C2=O)c(OCCOCCOCCOCCOCCOCCOc2ccc(Nc3ncc(Br)c(NCCCN(C)C(=O)C4CCC4)n3)cc2)c1` [Compound 37]: at least 81%. For `Cc1ncsc1-c1ccc(CNC(=O)[C@@H]2C[C@@H](O)CN2C(=O)[C@@H](NC(=O)COCCCOCCCCCOc2ccc(Nc3ncc(Br)c(NCCCN(C)C(=O)C4CCC4)n3)cc2)C(C)(C)C)cc1` [Compound 8], at TBK1 [2], the “Dmax (maximal degradation observed)” value was determined as 79% and the DC50 was determined as 88 nM. As to `Cc1ncsc1-c1ccc(CNC(=O)[C@@H]2C[C@@H](O)CN2C(=O)[C@H](C(C)C)N2Cc3ccccc3C2=O)c(OCCOCCOCCOCCOCCOc2ccc(Nc3ncc(Br)c(NCCCN(C)C(=O)C4CCC4)n3)cc2)c1` [Compound 38], the remaining activity at 1 µM at TBK1 [1] is at least 81%. As for `Cc1ncsc1-c1ccc(CNC(=O)[C@@H]2C[C@@H](O)CN2C(=O)[C@H](C(C)C)N2Cc3ccccc3C2=O)c(OCCOCCOCCCOCCOCCOc2ccc(Nc3ncc(Br)c(NCCCN(C)C(=O)C4CCC4)n3)cc2)c1` [Compound 42], the remaining activity at 1 µM at TBK1 [1] was in the range of 41 to 80%. With `Cc1ncsc1-c1ccc(CNC(=O)[C@@H]2C[C@@H](O)CN2C(=O)[C@@H](NC(=O)CCCCCOCCOc2ccc(Nc3ncc(Br)c(NCCCN(C)C(=O)C4CCC4)n3)cc2)C(C)(C)C)cc1` [Compound 5], at TBK1 [2], the DC50 is above 1000 nM.

With `Cc1ncsc1-c1ccc(CNC(=O)[C@@H]2C[C@@H](O)CN2C(=O)[C@@H](NC(=O)COCCOCCCCOCCCCOCCOc2ccc(Nc3ncc(Br)c(NCCCN(C)C(=O)C4CCC4)n3)cc2)C(C)(C)C)cc1` [Compound 14], at TBK1 [2], the “Dmax (maximal degradation observed)” value amounted to 96% and the DC50 was found to be 6 nM. Consider `Cc1ncsc1-c1ccc(CNC(=O)[C@@H]2C[C@@H](O)CN2C(=O)[C@H](C(C)C)N2Cc3ccccc3C2=O)c(OCCCOCCCOCCOc2ccc(Nc3ncc(Br)c(NCCCN(C)C(=O)C4CCC4)n3)cc2)c1` [Compound 46], for which the remaining activity at 1 µM at TBK1 [1] was in the range of 41 to 80%. As for `C=Cc1cnc(Nc2cccc(OCCCOCCCCOCCCOCC(=O)N[C@H](C(=O)N3C[C@H](O)C[C@H]3C(=O)NCc3ccc(-c4scnc4C)cc3)C(C)(C)C)c2)nc1NCCCN(C)C(=O)C1CCC1` [Compound 54], at TBK1 [1], the remaining activity at 1 µM was in the range of 41 to 80%. As to `Cc1ncsc1-c1ccc(CNC(=O)[C@@H]2C[C@@H](O)CN2C(=O)[C@@H](NC(=O)CCCCCOCCCCOCCCCOc2ccc(Nc3ncc(Br)c(NCCCN(C)C(=O)C4CCC4)n3)cc2)C(C)(C)C)cc1` [Compound 12], on TBK1 [2], the “Dmax (maximal degradation observed)” value amounted to 90% and the DC50 worked out at 95 nM. Regarding `Cc1ncsc1-c1ccc(CNC(=O)[C@@H]2C[C@@H](O)CN2C(=O)[C@@H](NC(=O)COCCOCCCCOCCCCOCCOCCOc2ccc(Nc3ncc(Br)c(NCCCN(C)C(=O)C4CCC4)n3)cc2)C(C)(C)C)cc1` [Compound 17], at TBK1 [2], the “Dmax (maximal degradation observed)” value was found to be 96% and the DC50 is 3 nM.

As for `Cc1ncsc1-c1ccc(CNC(=O)[C@@H]2C[C@@H](O)CN2C(=O)[C@@H](NC(=O)COCCCOCCCCOCCCOc2cccc(Nc3ncc(C4CC4)c(NCCCN(C)C(=O)C4CCC4)n3)c2)C(C)(C)C)cc1` [Compound 51], on TBK1 [1], the remaining activity at 1 µM was at least 81%. Regarding `Cc1ncsc1-c1ccc(CNC(=O)[C@@H]2C[C@@H](O)CN2C(=O)[C@H](C(C)C)N2Cc3ccccc3C2=O)c(OCCCOCCCOc2ccc(Nc3ncc(Br)c(NCCCN(C)C(=O)C4CCC4)n3)cc2)c1` [Compound 41], on TBK1 [1], the remaining activity at 1 µM was at least 81%. Take `Cc1ncsc1-c1ccc(CNC(=O)[C@@H]2C[C@@H](O)CN2C(=O)[C@@H](NC(=O)COCCOCCOCCOCCOCCOc2ccc(Nc3ncc(Br)c(NCCCN(C)C(=O)C4CCC4)n3)cc2)C(C)(C)C)cc1` [Compound 13]: at TBK1 [2], the “Dmax (maximal degradation observed)” value came out at 96% and the DC50 was found to be 29 nM. Taken in the same sequence, the figures for `Cc1ncsc1-c1ccc(CNC(=O)[C@@H]2C[C@@H](O)CN2C(=O)[C@@H](NC(=O)COCCOCCOCCOCCOc2ccc(Nc3ncc(Br)c(NCCCN(C)C(=O)C4CCC4)n3)cc2)C(C)(C)C)cc1` [Compound 10] were 92% and 103 nM. With `Cc1ncsc1-c1ccc(CNC(=O)[C@@H]2C[C@@H](O)CN2C(=O)[C@H](C(C)C)N2Cc3ccccc3C2=O)c(OCCOCCOc2ccc(Nc3ncc(Br)c(NCCCN(C)C(=O)C4CCC4)n3)cc2)c1` [Compound 34], the remaining activity at 1 µM on TBK1 [1] lay within 41 to 80%.

Regarding `Cc1ncsc1-c1ccc(CNC(=O)[C@@H]2C[C@@H](O)CN2C(=O)[C@@H](NC(=O)COCCOCCOCCOc2ccc(Nc3ncc(Br)c(NCCCN(C)C(=O)C4CCC4)n3)cc2)C(C)(C)C)cc1` [Compound 7], the DC50 at TBK1 [2] was above 1000 nM. Consider `Cc1ncsc1-c1ccc(CNC(=O)[C@@H]2C[C@@H](O)CN2C(=O)[C@H](C(C)C)N2Cc3ccccc3C2=O)c(OCCCCOCCCCOc2ccc(Nc3ncc(Br)c(NCCCN(C)C(=O)C4CCC4)n3)cc2)c1` [Compound 40], for which the remaining activity at 1 µM on TBK1 [1] is at least 81%. Still for that read-out and setting: under `CCc1cnc(Nc2cccc(OCCCOCCCCOCCCOCC(=O)N[C@H](C(=O)N3C[C@H](O)C[C@H]3C(=O)NCc3ccc(-c4scnc4C)cc3)C(C)(C)C)c2)nc1NCCCN(C)C(=O)C1CCC1` [Compound 52] stands at least 81%.

Turning to `Cc1ncsc1-c1ccc(CNC(=O)[C@@H]2C[C@@H](O)CN2C(=O)[C@@H](NC(=O)CCOCCCOCCCOCCCOCCCOc2ccc(Nc3ncc(Br)c(NCCCN(C)C(=O)C4CCC4)n3)cc2)C(C)(C)C)cc1` [Compound 15], at TBK1 [2], the “Dmax (maximal degradation observed)” value turned out to be 96% and the DC50 was 25 nM. As for `Cc1ncsc1-c1ccc(CNC(=O)[C@@H]2C[C@@H](O)CN2C(=O)[C@H](C(C)C)N2Cc3ccccc3C2=O)c(OCCOCCCOc2ccc(Nc3ncc(Br)c(NCCCN(C)C(=O)C4CCC4)n3)cc2)c1` [Compound 43], the remaining activity at 1 µM on TBK1 [1] was 41 to 80%.

`Cc1cnc(Nc2cccc(OCCCOCCCCOCCCOCC(=O)N[C@H](C(=O)N3C[C@H](O)C[C@H]3C(=O)NCc3ccc(-c4scnc4C)cc3)C(C)(C)C)c2)nc1NCCCN(C)C(=O)C1CCC1` [Compound 50]: at TBK1 [1], the remaining activity at 1 µM is at least 81%. `Cc1ncsc1-c1ccc(CNC(=O)[C@@H]2C[C@@H](O)CN2C(=O)[C@@H](NC(=O)COCCOCCOCCOCCOCCOCCOc2ccc(Nc3ncc(Br)c(NCCCN(C)C(=O)C4CCC4)n3)cc2)C(C)(C)C)cc1` [Compound 16]: on TBK1 [2], the “Dmax (maximal degradation observed)” value is given as 96% and the DC50 was found to be 34 nM. With `Cc1ncsc1-c1ccc(CNC(=O)[C@@H]2C[C@@H](O)CN2C(=O)[C@H](C(C)C)N2Cc3ccccc3C2=O)c(OCCCCOc2ccc(Nc3ncc(Br)c(NCCCN(C)C(=O)C4CCC4)n3)cc2)c1` [Compound 39], the remaining activity at 1 µM at TBK1 [1] was at least 81%. Regarding `Cc1ncsc1-c1ccc(CNC(=O)[C@@H]2C[C@@H](O)CN2C(=O)[C@H](C(C)C)N2Cc3ccccc3C2=O)c(OCCCOCCCOCCOCCCOCCCOc2ccc(Nc3ncc(Br)c(NCCCN(C)C(=O)C4CCC4)n3)cc2)c1` [Compound 48], at TBK1 [1], the remaining activity at 1 µM is 0 to 40%. Regarding `Cc1ncsc1-c1ccc(CNC(=O)[C@@H]2C[C@@H](O)CN2C(=O)[C@H](C(C)C)N2Cc3ccccc3C2=O)c(OCCOCCOCCOc2ccc(Nc3ncc(Br)c(NCCCN(C)C(=O)C4CCC4)n3)cc2)c1` [Compound 35], the remaining activity at 1 µM at TBK1 [1] is at least 81%. With `Cc1ncsc1-c1ccc(CNC(=O)[C@@H]2C[C@@H](O)CN2C(=O)[C@H](C(C)C)N2Cc3ccccc3C2=O)c(OCCOCCOCCOCCOc2ccc(Nc3ncc(Br)c(NCCCN(C)C(=O)C4CCC4)n3)cc2)c1` [Compound 36], the remaining activity at 1 µM at TBK1 [1] is at least 81%.
